The source of these data is article PMC4760952, “Structural basis of interprotein electron transfer in bacterial sulfite oxidation” (eLife, 2015).

The assay has as its target T1, SorT (Sinorhizobium meliloti, UniProt Q92M24).
T1 construct: gene SMc04049; recombinant periplasmic SorT, purified as in Low et al. 2011; homodimer; 33 N-terminal residues not seen in the complex crystal
T1 sequence (Q92M24 32-399): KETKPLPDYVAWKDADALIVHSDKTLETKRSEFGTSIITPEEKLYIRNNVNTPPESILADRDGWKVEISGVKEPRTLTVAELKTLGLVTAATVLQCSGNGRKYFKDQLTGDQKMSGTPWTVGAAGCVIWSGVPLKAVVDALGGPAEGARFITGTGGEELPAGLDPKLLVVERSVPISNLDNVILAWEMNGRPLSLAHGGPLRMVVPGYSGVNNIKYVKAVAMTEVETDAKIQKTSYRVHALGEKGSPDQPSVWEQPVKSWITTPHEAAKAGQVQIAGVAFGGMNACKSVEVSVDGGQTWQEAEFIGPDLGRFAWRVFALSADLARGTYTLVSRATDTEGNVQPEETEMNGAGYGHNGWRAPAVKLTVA
The experiment in a line: sulfite dehydrogenase assay, SorU reduction at […] nm. It counts as biochemical. To be noted: electron acceptor SorU.

On to `O=S(O)O` [sulfite], for which the “sulfite dehydrogenase assay, SorU reduction at 550 nm” value was “Sulfite dehydrogenase enzyme assays were carried out as described previously”.
